# Laboratory results as given in US4400510A, “A-32256 Phenazine antibiotic” (Eli Lilly and Company, priority 1981, dated 1983).
# Entries after “also recorded” stand apart in the source; their conditions may differ. Where two headings read alike, the source gives them in different places.
# Columns and labels:
# Actinomyces israellii = assay: agar-dilution MIC vs. anaerobic bacteria; format: cell-based; details: strain W855; Table 6
# Protocol: (§1) The agar-dilution procedure described by the International Collaborative Study (ICS) group was used to determine MIC values.
# (§2) The MIC was determined by the agar-dilution method.
# [1] = test system: Bacteroides thetaiotaomicron; assay: agar-dilution MIC vs. anaerobic bacteria; format: cell-based
# Protocol: as §1, §2
# Clostridium septicum = assay: agar-dilution MIC vs. anaerobic bacteria; format: cell-based; details: strain 1128, Table 6
# Protocol: as §1, §2
# Peptococcus prevoti = assay: agar-dilution MIC vs. anaerobic bacteria; format: cell-based
# Protocol: as §1, §2
# Bacteroides fragilis = assay: agar-dilution MIC vs. anaerobic bacteria; format: cell-based; details: Table 6
# Bacteroides corrodens = assay: agar-dilution MIC vs. anaerobic bacteria; format: cell-based; details: Eikenella corrodens; strain 1874; Table 6
# Fusobacterium symbiosum = assay: agar-dilution MIC vs. anaerobic bacteria; format: cell-based; details: strain 1470; Table 6
# Propionibacterium acnes = assay: agar-dilution MIC against Propionibacterium acnes; format: cell-based; details: Cutibacterium acnes, Table 7
# Description: as §1
# Antibiotic A-32256 is also active against a genus of anaerobic bacteria identified as Propionibacterium acnes, the MIC values being determined by the agar-dilution method, and set forth in Table 7, which follows.
# solubility = format: physicochemical
# Staphylococcus aureus = assay: disc-plate screening procedure, zone of inhibition
# Streptococcus pneumoniae = assay: disc-plate screening procedure, zone of inhibition; details: read-out: Zone Diameter
smiles,measurement,setting,value
"Cc1cccc(O)c1C(=O)OC(C)c1cccc2nc3c(C(=O)O)cccc3nc12 (stereo not shown) [Antibiotic A-32256, 6-[1-[(2-hydroxy-6-methylbenzoyl)oxy]-ethyl]-1-phenazinecarboxylic acid]",MIC,Actinomyces israellii,16 µg/mL
same,MIC,[1],≤ 0.5 µg/mL
same,MIC,Clostridium septicum,≤ 0.5 µg/mL
same,MIC,Peptococcus prevoti,≤ 0.5 µg/mL
same,MIC,"Bacteroides fragilis; Bacteroides fragilis, strain 111, read-out: MIC",1 µg/mL
same,MIC,"Bacteroides fragilis; Bacteroides fragilis, strain 1936B, read-out: MIC",1 µg/mL
same,MIC,Bacteroides fragilis; strain 1877,8 µg/mL
same,MIC,Bacteroides corrodens,≤ 0.5 µg/mL
same,MIC,Fusobacterium symbiosum,2 µg/mL
same,MIC,Propionibacterium acnes; P. acnes 44,≤ 0.015 µg/mL
same,MIC,Propionibacterium acnes; P. acnes 79,≤ 0.015 µg/mL
same,MIC,Propionibacterium acnes; P. acnes 101,≤ 0.015 µg/mL
same,MIC,Propionibacterium acnes; P. acnes 103,≤ 0.015 µg/mL
same,MIC,Propionibacterium acnes; P. acnes 104,≤ 0.015 µg/mL
same,MIC,Propionibacterium acnes; P. acnes 105,0.03 µg/mL
same,MIC,Propionibacterium acnes; P. acnes 106,0.06 µg/mL
same,MIC,Propionibacterium acnes; P. acnes 107,≤ 0.015 µg/mL
same,MIC,Propionibacterium acnes; P. acnes 108,0.03 µg/mL
same,MIC,Propionibacterium acnes; P. acnes 5170,≤ 0.015 µg/mL
same,MIC,Propionibacterium acnes; P. acnes 5176,≤ 0.015 µg/mL
same,MIC,Propionibacterium acnes; P. acnes 5187,≤ 0.015 µg/mL
same,MIC,Propionibacterium acnes; P. acnes 5191,0.06 µg/mL
same,MIC,Propionibacterium acnes; P. acnes 5197,≤ 0.015 µg/mL
same,MIC,Propionibacterium acnes; P. acnes 5226,≤ 0.015 µg/mL
same,MIC,Propionibacterium acnes; P. acnes 5227,≤ 0.015 µg/mL
same,MIC,Propionibacterium acnes; P. acnes 5228,≤ 0.015 µg/mL
same,MIC,Propionibacterium acnes; P. acnes 5229,0.03 µg/mL
same,MIC,Propionibacterium acnes; P. acnes 5246,≤ 0.015 µg/mL
same,solubility,solubility; acetone,moderately soluble
same,solubility,solubility; alkaline aqueous solutions,soluble
same,solubility,solubility; chloroform,easily soluble
same,solubility,solubility; cyclohexane,sparingly soluble
same,solubility,solubility; dimethyl sulfoxide,moderately soluble
same,solubility,solubility; dioxane,moderately soluble
same,solubility,solubility; ethanol,sparingly soluble
same,solubility,solubility; ethyl acetate,moderately soluble
same,solubility,solubility; hexane,sparingly soluble
same,solubility,solubility; methanol,sparingly soluble
same,solubility,solubility; pyridine,easily soluble
same,solubility,solubility; tetrahydrofuran,easily soluble
same,solubility,solubility; water,not water soluble; also recorded: insoluble
same,zone of inhibition at 30 µg/disc,"Staphylococcus aureus; read-out: Zone Diameter, S. aureus 3055, benzylpenicillin-susceptible, 30 mcg/disc",23 mm
same,zone of inhibition at 300 µg/disc,"Staphylococcus aureus; read-out: Zone Diameter, S. aureus 3055, benzylpenicillin-susceptible, 300 mcg/disc",26.2 mm
same,zone of inhibition at 30 µg/disc,"Staphylococcus aureus; read-out: Zone Diameter, S. aureus 3074, benzylpenicillin-resistant, 30 mcg/disc",10 mm
same,zone of inhibition at 300 µg/disc,"Staphylococcus aureus; read-out: Zone Diameter, S. aureus 3074, benzylpenicillin-resistant, 300 mcg/disc",12.2 mm
same,zone of inhibition at 30 µg/disc,"Staphylococcus aureus; read-out: Zone Diameter, S. aureus 3130, methicillin-resistant, 30 mcg/disc",25.8 mm
same,zone of inhibition at 300 µg/disc,"Staphylococcus aureus; read-out: Zone Diameter, S. aureus 3130, methicillin-resistant, 300 mcg/disc",30 mm
same,zone of inhibition at 30 µg/disc,Streptococcus pneumoniae,14 mm
same,zone of inhibition at 300 µg/disc,Streptococcus pneumoniae,16 mm
